Legend:
Format in all cases: cell-based
Pseudomonas aeruginosa = assay: inactivation of microorganisms in water, number of cells in supernatant
Method: (§1) Each test microbe was inoculated to nutrient broth and cultured with shaking at the optimum temperature of the test microbe until the late logarithmic phase. From the microbe culture, the microbe was collected, and the collected microbe was washed with 1.5 mL of physiological saline 2 to 3 times (centrifugation at 13000 rpm for 1 minute) and suspended in 1.5 mL of physiological saline. From the suspension, a 1 mL aliquot was recovered, and this was added to 9 mL of sterile water, followed by sufficient stirring of the resulting suspension (this was used as 10^−1 dilution). From the 10^−1 dilution, 10^−2 to 10^−8 dilutions were sequentially prepared. Each dilution was smeared on a film medium (Sanita-kun; for E. coli and coliform bacteria, for Staphylococcus aureus, for Salmonella, for aerobic bacteria or for fungi: Chisso Corporation) in an amount of 1 mL, followed by culturing at the optimum temperature of the test microbe for 24 to 72 hours and measurement of the number of cells on the film medium.
(§2) To a sterilized beaker, 500 mL of sterilized water was placed, and 0.20 mL of microbe culture of 10^6 to 10^10 cells/mL was inoculated thereto, to attain an initial cell number of 10^3 to 10^7 cells/mL. Unless otherwise specified, the pH was 6 to 8. After stirring the suspension gently for 5 minutes, PGα21Ca (Nippon Poly-Glu Co., Ltd.) and/or a microbiostatic agent or microbicide was/were added thereto such that a predetermined final concentration(s) was/were attained. After gentle stirring at room temperature for 10 to 15 minutes, the suspension was left to stand for a predetermined length of time. The supernatant was collected and diluted appropriately in an antimicrobial agent-inactivating medium (BHI medium or the like), and 1 mL each of the resulting diluent was smeared on a film medium. Culturing was carried out at the optimum temperature of each test microbe for 24 to 72 hours and the number of cells (cells/mL) on the film medium was measured.

Bacillus subtilis = assay: as above
Method: as §1, §2

Salmonella choleraesuis = assay: as above
Method: as §1, §2

Bacillus cereus = assay: as above
Method: as §1, §2

Klebsiella pneumoniae = assay: as above
Method: as §1, §2

Listeria monocytogenes = assay: as above
Method: as §1, §2

Staphylococcus aureus [1] = assay: as above
Method: as §1, §2

Escherichia coli [2] = assay: as above
Method: as §1, §2

Salmonella enterica = assay: inactivation with further addition of the microorganism after predetermined periods; conditions: ε-poly-L-lysine 5 ppm
Method: as §1, §2
(§3) (3) The inactivation effect of ε-poly-L-lysine, which is a microbicide related to the microorganism-inactivating agent of the present invention, upon its single application to water containing Escherichia coli, Salmonella or Staphylococcus, followed by further addition of the respective microorganisms after predetermined periods of time was studied. The addition of the microorganisms was carried out at 24, 48, 72 and 144 hours after sampling. ε-poly-L-lysine was added at a concentration of 5 ppm. […]

Staphylococcus aureus [3] = assay: as above; conditions: ε-poly-L-lysine 5 ppm
Method: as §1, §2, §3

Escherichia coli [4] = assay: as above; conditions: ε-poly-L-lysine 5 ppm
Method: as §1, §2, §3

[5] = ε-poly-L-lysine 10 ppm, 0 minute later 6.2 × 10^5
[6] = ε-poly-L-lysine 10 ppm, 0 minute later 2.9 × 10^4
[7] = ε-poly-L-lysine 5 ppm, initial 1.2 × 10^7
[8] = ε-poly-L-lysine 10 ppm, 0 minute later 3.2 × 10^5
[9] = ε-poly-L-lysine 10 ppm, initial 1.2 × 10^7
[10] = ε-poly-L-lysine 10 ppm, 0 minute later 7.5 × 10^4
[11] = ε-poly-L-lysine 10 ppm, 0 minute later 3.3 × 10^5
[12] = ε-poly-L-lysine 10 ppm, 0 minute later 8.1 × 10^4
[13] = ε-poly-L-lysine 10 ppm, 0 minute later 2.3 × 10^4
[14] = ε-poly-L-lysine 5 ppm, initial 3.2 × 10^7
[15] = ε-poly-L-lysine 10 ppm, 0 minute later 2.5 × 10^6
[16] = ε-poly-L-lysine 10 ppm, initial 3.2 × 10^7
[17] = further addition of microbe at 24 h (3.2 × 10^7)
[18] = further addition of microbe at 48 h (3.6 × 10^6)
[19] = further addition of microbe at 72 h (3.0 × 10^6)
[20] = further addition of microbe at 144 h (3.1 × 10^6)
[21] = further addition of microbe at 24 h (2.2 × 10^7)
[22] = further addition of microbe at 48 h (1.4 × 10^6)
[23] = further addition of microbe at 72 h (6.1 × 10^6)
[24] = further addition of microbe at 144 h (7.9 × 10^6)
[25] = further addition of microbe at 24 h (1.3 × 10^8)
[26] = further addition of microbe at 48 h (5.0 × 10^6)
[27] = further addition of microbe at 72 h (6.6 × 10^6)
[28] = further addition of microbe at 144 h (1.2 × 10^7)

ε-poly-L-lysine
number of cells 2 hours later (Pseudomonas aeruginosa; 10 ppm, pH 8, initial 2.0 × 10^5): <10 cells/mL
number of cells 5 minutes later (Pseudomonas aeruginosa; [5]): 2.16 × 10^4 cells/mL
number of cells 15 minutes later (Pseudomonas aeruginosa; [5]): 240 cells/mL
number of cells 60 minutes later (Pseudomonas aeruginosa; [5]): 20 cells/mL
number of cells 120 minutes later (Pseudomonas aeruginosa; [5]): <10 cells/mL
number of cells 2 hours later (Bacillus subtilis; 10 ppm, pH 8, initial 6.0 × 10^4): <10 cells/mL
number of cells 5 minutes later (Bacillus subtilis; [6]): 4 × 10^3 cells/mL
number of cells 15 minutes later (Bacillus subtilis; [6]): 30 cells/mL
number of cells 60 minutes later (Bacillus subtilis; [6]): <10 cells/mL
number of cells 120 minutes later (Bacillus subtilis; [6]): <10 cells/mL
number of cells 2 hours later (Salmonella choleraesuis; 10 ppm, pH 8, initial 4.7 × 10^4): <10 cells/mL
number of cells 0.5 hour later (Salmonella choleraesuis; [7]): 50 cells/mL
number of cells 1 hour later (Salmonella choleraesuis; [7]): 20 cells/mL
number of cells 2 hours later (Salmonella choleraesuis; [7]): <10 cells/mL
number of cells 5 minutes later (Salmonella choleraesuis; [8]): 480 cells/mL
number of cells 15 minutes later (Salmonella choleraesuis; [8]): 1.4 × 10^3 cells/mL
number of cells 60 minutes later (Salmonella choleraesuis; [8]): 120 cells/mL
number of cells 120 minutes later (Salmonella choleraesuis; [8]): <10 cells/mL
number of cells 0.5 hour later (Salmonella choleraesuis; [9]): <10 cells/mL
number of cells 1 hour later (Salmonella choleraesuis; [9]): <10 cells/mL
number of cells 2 hours later (Salmonella choleraesuis; [9]): <10 cells/mL
number of cells 2 hours later (Bacillus cereus; 10 ppm, pH 8, initial 9.5 × 10^4): 290 cells/mL
number of cells 5 minutes later (Bacillus cereus; [10]): 140 cells/mL
number of cells 15 minutes later (Bacillus cereus; [10]): 110 cells/mL
number of cells 60 minutes later (Bacillus cereus; [10]): 80 cells/mL
number of cells 120 minutes later (Bacillus cereus; [10]): <10 cells/mL
number of cells 2 hours later (Klebsiella pneumoniae; 10 ppm, pH 8, initial 1.3 × 10^5): <10 cells/mL
number of cells 5 minutes later (Klebsiella pneumoniae; [11]): 1.8 × 10^4 cells/mL
number of cells 15 minutes later (Klebsiella pneumoniae; [11]): 1.87 × 10^3 cells/mL
number of cells 60 minutes later (Klebsiella pneumoniae; [11]): 10 cells/mL
number of cells 120 minutes later (Klebsiella pneumoniae; [11]): <10 cells/mL
number of cells 2 hours later (Listeria monocytogenes; 10 ppm, pH 8, initial 2.0 × 10^4): <10 cells/mL
number of cells 5 minutes later (Listeria monocytogenes; [12]): 780 cells/mL
number of cells 15 minutes later (Listeria monocytogenes; [12]): 40 cells/mL
number of cells 60 minutes later (Listeria monocytogenes; [12]): 20 cells/mL
number of cells 120 minutes later (Listeria monocytogenes; [12]): <10 cells/mL
number of cells 2 hours later (Staphylococcus aureus [1]; 10 ppm, pH 8, initial 4.3 × 10^4): <10 cells/mL
number of cells 0.5 hour later (Staphylococcus aureus [1]; [7]): 4.0 × 10^4 cells/mL
number of cells 1 hour later (Staphylococcus aureus [1]; [7]): 2.2 × 10^4 cells/mL
number of cells 2 hours later (Staphylococcus aureus [1]; [7]): 4.2 × 10^3 cells/mL
number of cells 5 minutes later (Staphylococcus aureus [1]; [13]): 8.1 × 10^3 cells/mL
number of cells 15 minutes later (Staphylococcus aureus [1]; [13]): 2.55 × 10^3 cells/mL
number of cells 60 minutes later (Staphylococcus aureus [1]; [13]): 2 × 10^3 cells/mL
number of cells 120 minutes later (Staphylococcus aureus [1]; [13]): 440 cells/mL
number of cells 0.5 hour later (Staphylococcus aureus [1]; [9]): 5.0 × 10^4 cells/mL
number of cells 1 hour later (Staphylococcus aureus [1]; [9]): 7.0 × 10^3 cells/mL
number of cells 2 hours later (Staphylococcus aureus [1]; [9]): 4.8 × 10^3 cells/mL
number of cells 2 hours later (Escherichia coli [2]; 10 ppm, pH 8, initial 5.8 × 10^4): <10 cells/mL
number of cells 0.5 hour later (Escherichia coli [2]; [14]): 3.2 × 10^3 cells/mL
number of cells 1 hour later (Escherichia coli [2]; [14]): <10 cells/mL
number of cells 2 hours later (Escherichia coli [2]; [14]): <10 cells/mL
number of cells 5 minutes later (Escherichia coli [2]; [15]): 1.32 × 10^4 cells/mL
number of cells 15 minutes later (Escherichia coli [2]; [15]): 10 cells/mL
number of cells 60 minutes later (Escherichia coli [2]; [15]): <10 cells/mL
number of cells 120 minutes later (Escherichia coli [2]; [15]): <10 cells/mL
number of cells 0.5 hour later (Escherichia coli [2]; [16]): 300 cells/mL
number of cells 1 hour later (Escherichia coli [2]; [16]): <10 cells/mL
number of cells 2 hours later (Escherichia coli [2]; [16]): <10 cells/mL
number of cells, elapsed time 26 hours (Salmonella enterica; [17]): <10 cells/mL
number of cells, elapsed time 28 hours (Salmonella enterica; [17]): <10 cells/mL
number of cells, elapsed time 48 hours (Salmonella enterica; [17]): <10 cells/mL
number of cells, elapsed time 50 hours (Salmonella enterica; [18]): <10 cells/mL
number of cells, elapsed time 52 hours (Salmonella enterica; [18]): <10 cells/mL
number of cells, elapsed time 72 hours (Salmonella enterica; [18]): <10 cells/mL
number of cells, elapsed time 74 hours (Salmonella enterica; [19]): <10 cells/mL
number of cells, elapsed time 76 hours (Salmonella enterica; [19]): <10 cells/mL
number of cells, elapsed time 96 hours (Salmonella enterica; [19]): <10 cells/mL
number of cells, elapsed time 144 hours (Salmonella enterica; [19]): <10 cells/mL
number of cells, elapsed time 146 hours (Salmonella enterica; [20]): <10 cells/mL
number of cells, elapsed time 148 hours (Salmonella enterica; [20]): <10 cells/mL
number of cells, elapsed time 168 hours (Salmonella enterica; [20]): <10 cells/mL
number of cells, elapsed time 2 hours (Salmonella enterica; initial 3.0 × 10^6): <10 cells/mL
number of cells, elapsed time 4 hours (Salmonella enterica; initial 3.0 × 10^6): <10 cells/mL
number of cells, elapsed time 24 hours (Salmonella enterica; initial 3.0 × 10^6): <10 cells/mL
number of cells, elapsed time 26 hours (Staphylococcus aureus [3]; [21]): 2.2 × 10^6 cells/mL
number of cells, elapsed time 28 hours (Staphylococcus aureus [3]; [21]): 2.1 × 10^5 cells/mL
number of cells, elapsed time 48 hours (Staphylococcus aureus [3]; [21]): <10 cells/mL
number of cells, elapsed time 50 hours (Staphylococcus aureus [3]; [22]): 2.5 × 10^4 cells/mL
number of cells, elapsed time 52 hours (Staphylococcus aureus [3]; [22]): 1.2 × 10^4 cells/mL
number of cells, elapsed time 72 hours (Staphylococcus aureus [3]; [22]): <10 cells/mL
number of cells, elapsed time 74 hours (Staphylococcus aureus [3]; [23]): 1.7 × 10^3 cells/mL
number of cells, elapsed time 76 hours (Staphylococcus aureus [3]; [23]): 20 cells/mL
number of cells, elapsed time 96 hours (Staphylococcus aureus [3]; [23]): <10 cells/mL
number of cells, elapsed time 144 hours (Staphylococcus aureus [3]; [23]): <10 cells/mL
number of cells, elapsed time 146 hours (Staphylococcus aureus [3]; [24]): 1.0 × 10^3 cells/mL
number of cells, elapsed time 148 hours (Staphylococcus aureus [3]; [24]): 90 cells/mL
number of cells, elapsed time 168 hours (Staphylococcus aureus [3]; [24]): <10 cells/mL
number of cells, elapsed time 2 hours (Staphylococcus aureus [3]; initial 2.0 × 10^6): <10 cells/mL
number of cells, elapsed time 4 hours (Staphylococcus aureus [3]; initial 2.0 × 10^6): <10 cells/mL
number of cells, elapsed time 24 hours (Staphylococcus aureus [3]; initial 2.0 × 10^6): <10 cells/mL
number of cells, elapsed time 26 hours (Escherichia coli [4]; [25]): <10 cells/mL
number of cells, elapsed time 28 hours (Escherichia coli [4]; [25]): <10 cells/mL
number of cells, elapsed time 48 hours (Escherichia coli [4]; [25]): <10 cells/mL
number of cells, elapsed time 50 hours (Escherichia coli [4]; [26]): <10 cells/mL
number of cells, elapsed time 52 hours (Escherichia coli [4]; [26]): <10 cells/mL
number of cells, elapsed time 72 hours (Escherichia coli [4]; [26]): <10 cells/mL
number of cells, elapsed time 74 hours (Escherichia coli [4]; [27]): <10 cells/mL
number of cells, elapsed time 76 hours (Escherichia coli [4]; [27]): <10 cells/mL
number of cells, elapsed time 96 hours (Escherichia coli [4]; [27]): <10 cells/mL
number of cells, elapsed time 144 hours (Escherichia coli [4]; [27]): <10 cells/mL
number of cells, elapsed time 146 hours (Escherichia coli [4]; [28]): <10 cells/mL
number of cells, elapsed time 148 hours (Escherichia coli [4]; [28]): <10 cells/mL
number of cells, elapsed time 168 hours (Escherichia coli [4]; [28]): <10 cells/mL
number of cells, elapsed time 2 hours (Escherichia coli [4]; initial 1.0 × 10^6): <10 cells/mL
number of cells, elapsed time 4 hours (Escherichia coli [4]; initial 1.0 × 10^6): <10 cells/mL
number of cells, elapsed time 24 hours (Escherichia coli [4]; initial 1.0 × 10^6): <10 cells/mL

— patent US20110046040A1, “Microorganism-inactivating agent” (CHISSO CORPORATION, priority 2009, published 2011)
